Earlier results on one compound are cited in patent publication US8586580B2, “2,7-substituted thieno[3,2-d] pyrimidine compounds as protein kinase inhibitors” (Korea Institute of Science and Technology, priority 2009, dated 2013).

In this series the test system is PC-3, BT-474, LoVo, NCI-H460, U-87 MG and BxPC-3 human tumor xenografts. Particulars: in vivo.

With `CN(c1ncccc1CNc1nc(Nc2ccc3c(c2)CC(=O)N3)ncc1C(F)(F)F)S(C)(=O)=O` [PF-562271], the toxicity result is given as “No special toxicity has been observed”.
